Reference: PubChem BioAssay AID330 (DTP/NCI, 2004)
Values joined by “and” are separate entries in the source; they are usually repeats but may differ in a detail not shown here. Equal values may be shown once. Inconclusive results and toxic doses are left out. The calls were made as follows: active = survival T/C of 150% or more; inactive = T/C below 125% in these data.

Test system: P388 leukemia ip, CD2F1 mice, survival T/C
Experiment: NCI In Vivo Anticancer Drug Screen. Data for tumor model P388 Leukemia (intraperitoneal) in CD2F1 (CDF1) mice
Details: endpoint: median survival time, higher = longer survival
How it was run: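 Mice carrying the transplanted tumor received test compound or vehicle. Survival was recorded in each group, and the value is the treated-group measurement divided by that of the vehicle-treated control group.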

[1] = dose: 50.0 mg/kg/injection, schedule: Q01DX005 (ip), vehicle: Klucel (hydroxypropylcellulose) (HPC)
[2] = dose: 100.0 mg/kg/injection, schedule: Q01DX005 (ip), vehicle: Klucel (hydroxypropylcellulose) (HPC)
[3] = dose: 60.0 mg/kg/injection, schedule: Q01DX005 (ip), vehicle: Klucel (hydroxypropylcellulose) (HPC)
[4] = dose: 120.0 mg/kg/injection, schedule: Q01DX005 (ip), vehicle: Klucel (hydroxypropylcellulose) (HPC)
[5] = dose: 240.0 mg/kg/injection, schedule: Q01DX005 (ip), vehicle: Klucel (hydroxypropylcellulose) (HPC)
[6] = dose: 50.0 mg/kg/injection, schedule: Q01DX005 (ip), vehicle: saline with Tween-80
[7] = dose: 100.0 mg/kg/injection, schedule: Q01DX005 (ip), vehicle: saline with Tween-80
[8] = dose: 200.0 mg/kg/injection, schedule: Q01DX005 (ip), vehicle: saline with Tween-80
[9] = dose: 100.0 mg/kg/injection, schedule: Q04DX003 (ip), vehicle: Klucel (hydroxypropylcellulose) (HPC)
[10] = dose: 12.5 mg/kg/injection, schedule: Q01DX005 (ip), vehicle: saline with Tween-80
[11] = dose: 25.0 mg/kg/injection, schedule: Q01DX005 (ip), vehicle: saline with Tween-80
[12] = dose: 50.0 mg/kg/injection, schedule: Q01DX009 (ip), vehicle: Klucel (hydroxypropylcellulose) (HPC)

Measured: T/C

[Fe].[c-]1[c-][c-][c-](CNc2ncnc3nc[nH]c23)[c-]1.[c-]1[c-][c-][cH-][c-]1
inactive: dose: 12.5 mg/kg/injection, schedule: Q01DX005 (ip), vehicle: Klucel (hydroxypropylcellulose) (HPC) 97 % of control | dose: 25.0 mg/kg/injection, schedule: Q01DX005 (ip), vehicle: Klucel (hydroxypropylcellulose) (HPC) 100 % of control | [1] 86 % of control | [2] 91 % of control

CCCC(=O)NN=C(C)C
inactive: dose: 12.5 mg/kg/injection, schedule: Q01DX009 (ip), vehicle: saline 104 % of control | dose: 25.0 mg/kg/injection, schedule: Q01DX009 (ip), vehicle: saline 109 % of control

COC(=O)C(CSC(c1ccccc1)(c1ccccc1)c1ccccc1)NC(=O)CC(NC(=O)OCc1ccccc1)C(N)=O (configuration not stated)
inactive: dose: 12.5 mg/kg/injection, schedule: Q01DX009 (ip), vehicle: distilled water + Tween-80 106 % of control | dose: 25.0 mg/kg/injection, schedule: Q01DX009 (ip), vehicle: distilled water + Tween-80 93 % of control | dose: 50.0 mg/kg/injection, schedule: Q01DX009 (ip), vehicle: distilled water + Tween-80 103 % of control | dose: 100.0 mg/kg/injection, schedule: Q01DX009 (ip), vehicle: distilled water + Tween-80 94 % of control | dose: 200.0 mg/kg/injection, schedule: Q01DX009 (ip), vehicle: distilled water + Tween-80 102 % of control

C=CC(=O)CC1(C(=O)OC)NC(=S)NC(=O)C1C#N (configuration not stated)
inactive: [3] 102 % of control | [4] 102 % of control | [5] 98 % of control

COc1c(O)c(O)c2c(c1O)C(=O)c1cc(C)cc(O)c1C2=O
inactive: dose: 5.0 mg/kg/injection, schedule: Q01DX009 (ip), vehicle: saline with Tween-80 99 % of control | dose: 10.0 mg/kg/injection, schedule: Q01DX009 (ip), vehicle: saline with Tween-80 103 % of control | dose: 20.0 mg/kg/injection, schedule: Q01DX009 (ip), vehicle: saline with Tween-80 105 % of control

CC(NC(=O)C1CCCN1C(=O)OCc1ccccc1)C(=O)O (configuration not stated)
inactive: [6] 106 % of control | [7] 100 % of control | [8] 100 % of control

CN(C)c1nc(=O)c2c(o1)CC(C)(C)C2
inactive: [9] 110 % of control | dose: 200.0 mg/kg/injection, schedule: Q04DX003 (ip), vehicle: Klucel (hydroxypropylcellulose) (HPC) 109 % of control | dose: 400.0 mg/kg/injection, schedule: Q04DX003 (ip), vehicle: Klucel (hydroxypropylcellulose) (HPC) 90 % of control

COc1c2c(c(Cc3c4c(c(OC)c5c3OCO5)OC(C)C4)c3c1OCO3)CC(C)O2 (configuration not stated)
inactive: [10] 96 % of control | [11] 94 % of control | [6] 89 % of control and 95 % of control

COc1ccc(CCNC(=O)Cc2ccc(Cl)cc2)cc1OC
inactive: dose: 60.0 mg/kg/injection, schedule: Q01DX005 (ip), vehicle: saline with Tween-80 99 % of control | dose: 120.0 mg/kg/injection, schedule: Q01DX005 (ip), vehicle: saline with Tween-80 97 % of control | dose: 240.0 mg/kg/injection, schedule: Q01DX005 (ip), vehicle: saline with Tween-80 92 % of control

CN=NNc1ccc(C#N)cc1
inactive: dose: 100.0 mg/kg/injection, schedule: Q01DX001 (ip), vehicle: Klucel (hydroxypropylcellulose) (HPC) 98 % of control | dose: 200.0 mg/kg/injection, schedule: Q01DX001 (ip), vehicle: Klucel (hydroxypropylcellulose) (HPC) 98 % of control | dose: 400.0 mg/kg/injection, schedule: Q01DX001 (ip), vehicle: Klucel (hydroxypropylcellulose) (HPC) 95 % of control

COc1ccc2c(c1OC)CC(=O)N1CCc3cc4c(cc3C(=O)C21)OCO4 (configuration not stated)
inactive: dose: 2.5 mg/kg/injection, schedule: Q01DX005 (ip), vehicle: saline + Tween-80 + alcohol 104 % of control | dose: 5.0 mg/kg/injection, schedule: Q01DX005 (ip), vehicle: saline + Tween-80 + alcohol 101 % of control | dose: 10.0 mg/kg/injection, schedule: Q01DX005 (ip), vehicle: saline + Tween-80 + alcohol 100 % of control | dose: 20.0 mg/kg/injection, schedule: Q01DX005 (ip), vehicle: saline + Tween-80 + alcohol 107 % of control

CC(C)(C)C1=NC=CNC(C(F)(F)F)=C1
inactive: dose: 12.5 mg/kg/injection, schedule: Q01DX009 (ip), vehicle: Klucel (hydroxypropylcellulose) (HPC) 94 % of control | dose: 25.0 mg/kg/injection, schedule: Q01DX009 (ip), vehicle: Klucel (hydroxypropylcellulose) (HPC) 100 % of control | [12] 94 % of control

O=C(O)CSc1cc(Cl)ccc1Cl
inactive: dose: 12.5 mg/kg/injection, schedule: Q04DX003 (ip), vehicle: Klucel (hydroxypropylcellulose) (HPC) 102 % of control | dose: 25.0 mg/kg/injection, schedule: Q04DX003 (ip), vehicle: Klucel (hydroxypropylcellulose) (HPC) 100 % of control | dose: 50.0 mg/kg/injection, schedule: Q04DX003 (ip), vehicle: Klucel (hydroxypropylcellulose) (HPC) 102 % of control | [9] 103 % of control

S=C(NNc1nnc(-c2ccccc2)c(-c2ccccc2)n1)Nc1ccc(Br)cc1
inactive: [10] 97 % of control | [11] 90 % of control | [6] 97 % of control | [8] 93 % of control

NC(=S)N/N=C\C(CC(O)C(O)CO)=N\NC(N)=S (configuration not stated)
inactive: [6] 89 % of control | [7] 95 % of control | [8] 98 % of control

O=C(c1ccc(-c2ccccc2)cc1)C1CC1c1ccccc1 (configuration not stated)
inactive: dose: 25.0 mg/kg/injection, schedule: Q01DX001 (ip), vehicle: saline sonified 109 % of control | dose: 50.0 mg/kg/injection, schedule: Q01DX001 (ip), vehicle: saline sonified 90 % of control | dose: 100.0 mg/kg/injection, schedule: Q01DX001 (ip), vehicle: saline sonified 90 % of control

CC(C)N=C1CCCC1C(=S)SSC(=S)C1CCCC1=NC(C)C (configuration not stated)
inactive: [12] 99 % of control | dose: 100.0 mg/kg/injection, schedule: Q01DX009 (ip), vehicle: Klucel (hydroxypropylcellulose) (HPC) 99 % of control | dose: 200.0 mg/kg/injection, schedule: Q01DX009 (ip), vehicle: Klucel (hydroxypropylcellulose) (HPC) 100 % of control

Cc1oc2ccccc2c(=O)c1CN1CCN(c2ccccc2)CC1
inactive: dose: 60.0 mg/kg/injection, schedule: Q01DX005 (ip), vehicle: saline 103 % of control | dose: 120.0 mg/kg/injection, schedule: Q01DX005 (ip), vehicle: saline 101 % of control | dose: 240.0 mg/kg/injection, schedule: Q01DX005 (ip), vehicle: saline 92 % of control

CC([NH-])CC(C)[NH-].[Cl][Pt+2][Cl] (configuration not stated)
inactive: dose: 0.78 mg/kg/injection, schedule: Q04DX002 (ip), vehicle: saline with Tween-80 119 % of control

CCOC(=O)C1CN(C(=O)OCC)CCC1NC(C)=O (configuration not stated)
inactive: [3] 102 % of control | [4] 96 % of control | [5] 98 % of control

COc1ccc2nc3cc(Cl)ccc3c(NCCCCCCCCNc3c4ccc(Cl)cc4nc4ccc(OC)cc34)c2c1
inactive: dose: 0.62 mg/kg/injection, schedule: Q01DX009 (ip), vehicle: other 101 % of control | dose: 1.25 mg/kg/injection, schedule: Q01DX009 (ip), vehicle: other 101 % of control | dose: 2.5 mg/kg/injection, schedule: Q01DX009 (ip), vehicle: other 104 % of control | dose: 5.0 mg/kg/injection, schedule: Q01DX009 (ip), vehicle: other 100 % of control | dose: 10.0 mg/kg/injection, schedule: Q01DX009 (ip), vehicle: other 97 % of control | dose: 20.0 mg/kg/injection, schedule: Q01DX009 (ip), vehicle: other 109 % of control

Cc1c2noc1CCCCCCCCCCC2
inactive: [1] 104 % of control | [2] 110 % of control | dose: 200.0 mg/kg/injection, schedule: Q01DX005 (ip), vehicle: Klucel (hydroxypropylcellulose) (HPC) 102 % of control

CC(C)(C)c1cc2c(c(C(C)(C)OC(=O)c3ccccc3)c1)SOC2(C)C
inactive: dose: 12.5 mg/kg/injection, schedule: Q01DX005 (ip), vehicle: saline 101 % of control | dose: 12.5 mg/kg/injection, schedule: Q01DX005 (ip), vehicle: suspension in saline 102 % of control | dose: 25.0 mg/kg/injection, schedule: Q01DX005 (ip), vehicle: saline 91 % of control | dose: 25.0 mg/kg/injection, schedule: Q01DX005 (ip), vehicle: suspension in saline 100 % of control | [1] 100 % of control | dose: 50.0 mg/kg/injection, schedule: Q01DX005 (ip), vehicle: saline 100 % of control | dose: 50.0 mg/kg/injection, schedule: Q01DX005 (ip), vehicle: suspension in saline 106 % of control | [2] 104 % of control | dose: 100.0 mg/kg/injection, schedule: Q01DX005 (ip), vehicle: saline 98 % of control | dose: 100.0 mg/kg/injection, schedule: Q01DX005 (ip), vehicle: suspension in saline 102 % of control
